Reference: article PMC10992857, “Chemoenzymatic access to enantiopure N-containing furfuryl alcohol from chitin-derived N-acetyl-D-glucosamine” (Bioresources and Bioprocessing, 2021)

Tests used:
[1] = tested on: T1, YueD; carbonyl reductase from Bacillus sp. ECU0013; experiment: kinetics of asymmetric ketone reduction; format: biochemical; settings: co-substrate NADPH; full assay conditions in supplement Table S3
T1 construct: pET28a, His-tag purified from E. coli BL21(DE3); NADPH-dependent
Excerpt: kinetics of asymmetric ketone reduction on YueD; carbonyl reductase from Bacillus sp.

[2] = tested on: T2, ScCR; carbonyl reductase from Streptomyces coelicolor; experiment: kinetics of asymmetric ketone reduction; format: biochemical; settings: co-substrate NADH; full assay conditions in supplement Table S3
T2 construct: pET28a, His-tag purified from E. coli BL21(DE3); NADH-dependent

Question: How did the Km [1] turn out when `CC(=O)Nc1coc(C(C)=O)c1` [3A5AF, 3-Acetamido-5-acetylfuran] was run?
Answer: 0.5 mM

Question: What about the Km [2] of the same compound?
Answer: 6.3 mM
